Values quoted from earlier work, collected in patent US8962594B2, “Method of using nutritional compounds dihydroquercetin (taxifolin) and arabinogalactan in combination with dihydroquercetin (taxifolin) to reduce and control cardiometabolic risk factors associated with metabolic syndrome and hypercholesterolemia” (Flavitpure, Inc., priority 2012, dated 2015).

Tests used:
PPARa = conditions: supplementation of HepG2 cells
rats = rats treated with high levels for long periods of time
RGC-5 cells = conditions: read-out: EC50 for protection of RGC-5 cells from oxidative stress induced by GSH depletion
[1] = test system: Glutathione prexidase (GPx); conditions: 25 and 50 μM
RBCs [2] = conditions: pre-incubation of RBCs with water-soluble compound for 30 min; remaining hemolysis
[3] = biological target: T1, microsomal triglyceride transfer protein (MTP) (Homo sapiens, UniProt P55157)
T1 construct: endogenous in cells; host or cells: HepG2
T1 sequence (P55157 19-894): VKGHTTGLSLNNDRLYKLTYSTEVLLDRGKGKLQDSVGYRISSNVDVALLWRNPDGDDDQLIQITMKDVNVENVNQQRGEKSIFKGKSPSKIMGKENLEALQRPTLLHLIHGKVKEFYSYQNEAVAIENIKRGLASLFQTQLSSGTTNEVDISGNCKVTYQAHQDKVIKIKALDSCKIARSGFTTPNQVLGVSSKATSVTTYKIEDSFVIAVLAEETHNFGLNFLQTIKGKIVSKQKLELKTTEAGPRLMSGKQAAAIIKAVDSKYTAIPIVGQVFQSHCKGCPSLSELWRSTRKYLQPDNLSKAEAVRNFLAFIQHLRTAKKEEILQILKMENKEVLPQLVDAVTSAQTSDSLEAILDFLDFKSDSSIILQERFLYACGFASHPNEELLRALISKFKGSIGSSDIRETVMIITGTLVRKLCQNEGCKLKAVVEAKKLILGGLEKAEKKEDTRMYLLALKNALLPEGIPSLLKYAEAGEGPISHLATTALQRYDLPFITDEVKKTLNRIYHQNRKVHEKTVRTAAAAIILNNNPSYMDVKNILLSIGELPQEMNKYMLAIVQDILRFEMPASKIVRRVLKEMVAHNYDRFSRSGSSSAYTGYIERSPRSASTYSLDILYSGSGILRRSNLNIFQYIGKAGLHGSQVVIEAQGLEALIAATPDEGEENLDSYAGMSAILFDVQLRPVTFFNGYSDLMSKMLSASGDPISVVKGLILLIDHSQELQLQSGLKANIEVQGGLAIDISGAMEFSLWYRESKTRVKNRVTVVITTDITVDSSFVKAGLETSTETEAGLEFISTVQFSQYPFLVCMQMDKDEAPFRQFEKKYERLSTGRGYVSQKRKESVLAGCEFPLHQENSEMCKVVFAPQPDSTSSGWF

HMG-CoA reductase = biological target: T2, HMG-CoA reductase (Homo sapiens, UniProt P04035)
T2 construct: endogenous in cells; host or cells: HepG2
T2 sequence (P04035 1-888): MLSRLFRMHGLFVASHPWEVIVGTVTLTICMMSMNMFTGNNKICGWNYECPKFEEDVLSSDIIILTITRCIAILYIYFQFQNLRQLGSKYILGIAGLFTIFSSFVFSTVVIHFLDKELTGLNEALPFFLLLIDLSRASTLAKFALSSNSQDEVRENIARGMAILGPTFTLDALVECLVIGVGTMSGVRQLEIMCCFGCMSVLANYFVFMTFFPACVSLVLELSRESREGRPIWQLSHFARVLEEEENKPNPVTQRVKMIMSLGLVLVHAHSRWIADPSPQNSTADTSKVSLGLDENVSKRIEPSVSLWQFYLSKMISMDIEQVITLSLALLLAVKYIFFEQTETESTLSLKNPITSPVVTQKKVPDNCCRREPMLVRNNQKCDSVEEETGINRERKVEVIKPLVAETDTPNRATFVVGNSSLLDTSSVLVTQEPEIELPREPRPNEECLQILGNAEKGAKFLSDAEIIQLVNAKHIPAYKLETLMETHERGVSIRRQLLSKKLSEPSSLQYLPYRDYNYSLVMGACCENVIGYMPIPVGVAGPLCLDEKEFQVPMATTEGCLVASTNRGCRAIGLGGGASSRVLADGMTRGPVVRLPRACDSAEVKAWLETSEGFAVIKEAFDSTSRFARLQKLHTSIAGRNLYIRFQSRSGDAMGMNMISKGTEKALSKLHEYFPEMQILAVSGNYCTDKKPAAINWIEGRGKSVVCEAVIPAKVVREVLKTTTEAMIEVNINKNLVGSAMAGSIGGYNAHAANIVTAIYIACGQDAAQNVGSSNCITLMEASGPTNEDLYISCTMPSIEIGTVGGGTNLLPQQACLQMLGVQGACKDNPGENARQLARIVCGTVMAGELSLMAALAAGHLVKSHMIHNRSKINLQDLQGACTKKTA

RBCs [4] = conditions: remaining hemolysis; vehicle 75.7±5.2%, P<0.001
[5] = test system: diacylglycerol acyltransferase (DGAT); conditions: non-competitive
[6] = test system: CNS-derived mouse HT22 cells; conditions: read-out: EC50 for protection of HT22 cells from a similar insult
HepG2 cells = conditions: 200 umol, within 24 h
[7] = test system: apolipoprotein A-I (apoA-I); conditions: pulse-chase, HepG2 cells
TNF-α = conditions: LPS-stimulated PBMC, pre-treated
IL-1β = conditions: LPS-stimulated PBMC, pre-treated

SMILES	PPARa expression (PPARa)	toxic effects (rats)	reduction of apoB secretion (apolipoprotein B (apoB); basal and lipid-rich conditions, 200 micromol/L)	average reduction in labeled apoB in the medium (apolipoprotein B (apoB); pulse-chase, HepG2 cells)	EC50 (RGC-5 cells) [µM]	Glutathione prexidase (GPx) protein level [1]	peroxyl radical (AAPH)-induced hemolysis reduced to (RBCs [2]) [%]	TG transfer into the microsomal lumen (change) (microsomal TG synthesis) [%]	inhibition of microsomal TG synthesis (microsomal TG synthesis) [%]	inhibition of MTP [3] [%]	inhibition of HMG-CoA reductase activity (HMG-CoA reductase)	phospholipase C-induced hemolysis (RBCs [4]) [%]	DGAT-2 mRNA expression (DGAT-2 mRNA)	decrease in DGAT activity (change) [5] [%]	EC50 [6] [µM]	DGAT-1 mRNA expression (DGAT-1 mRNA)	inhibition of cholesterol synthesis (HepG2 cells)	increase of ApoA-I secretion [7]	mean inhibition of the secretion of TNF-α (TNF-α) [%]	inhibition of IL-1β secretion (IL-1β) [%]
O=C1c2c(O)cc(O)cc2OC(c2ccc(O)c(O)c2)C1O (racemic) [Dihydroquercetin (taxifolin)]	increase	No toxic effects	up to 63%	61+−8%	30	significantly increased	32.5±5.6	−26	37	41	47+−7%	45.4±10.0	essentially unchanged	−35	> 50	essentially unchanged	86+−3%	36+−10%		
O=C(O)Cc1ccc(O)c(O)c1 [3,4-DHPAA, 3,4-dihydroxyphenylacetic acid]																			86.4	97.9
